Results taken from the OligoGym collection.
Several values for one entry are separate records, joined by “and”; a condition that tells them apart may be missing. Equal values may be shown once. After the bases stand the sugars from the 5' end (letter, count) and the backbone: PS all phosphorothioate, else s phosphorothioate and o phosphodiester by linkage. Methylation of C is not given here. e = 2'-O-(2-methoxyethyl) (MOE); k = constrained ethyl (cEt); d = 2'-deoxy (DNA)

Molecular target: KRAS
Conditions: ASO

TCCATTTATGTGACTA (sugars k3 d10 k3, PS)
target mRNA inhibition (A431, 0.185 µM): 29% | target mRNA inhibition (A431, 0.556 µM): 59% | target mRNA inhibition (A431, 1.667 µM): 65% | target mRNA inhibition (A431, 5 µM): 78%

ATGGTGAATATCTTCA (sugars k3 d10 k3, PS)
target mRNA inhibition (A431, 1.667 µM): 45% and 31% | target mRNA inhibition (A431, 2 µM): 64% | target mRNA inhibition (A431, 5 µM): 70% and 65%

GTACTAGTATGCCTTA (sugars k3 d10 k3, PS)
target mRNA inhibition (A431, 2 µM): 50%

ATGTAGGGCATTTCTG (sugars k3 d10 k3, PS)
target mRNA inhibition (A431, 2 µM): 9%

GTATTAACACAGAAGT (sugars k3 d10 k3, PS)
target mRNA inhibition (A431, 2 µM): 0%

CATTTATGTGACTAGA (sugars kdddddddddkekeke, PS)
target mRNA inhibition (A431, 2 µM): 24%

CATTCAAAGTTCACAT (sugars kddddddddddkekek, PS)
target mRNA inhibition (A431, 2 µM): 43%

TTCATTGTTTAAAAAA (sugars k3 d10 k3, PS)
target mRNA inhibition (A431, 2 µM): 6%

GTGTTTATGCAATGTT (sugars k3 d9 k3 e1, PS)
target mRNA inhibition (A431, 0.185 µM): 19% | target mRNA inhibition (A431, 0.556 µM): 63% | target mRNA inhibition (A431, 1.667 µM): 79% | target mRNA inhibition (A431, 2 µM): 59% | target mRNA inhibition (A431, 5 µM): 88%

CGAGAATGGATATTCA (sugars k3 d10 k3, PS)
target mRNA inhibition (A431, 2 µM): 14%

AATGGTGAATATCTTC (sugars k3 d10 k3, PS)
target mRNA inhibition (A431, 0.037 µM): 58% | target mRNA inhibition (A431, 2 µM): 50% | target mRNA inhibition (A431, 5 µM): 97% and 90% | target mRNA inhibition (NCI-H460, 0.037 µM): 33.3%

AGGAGTCTTTATAGTA (sugars kdddddddddkekeke, PS)
target mRNA inhibition (A431, 2 µM): 24%

AAAAAAAAATTAATGT (sugars k3 d10 k3, PS)
target mRNA inhibition (A431, 2 µM): 16%

GTGTGACTCAGTTAAA (sugars kkddddddddkekekk, PS)
target mRNA inhibition (A431, 2 µM): 38%

GTGTTTATGCAATGTT (sugars kkkdddddddddkeke, PS)
target mRNA inhibition (A431, 0.185 µM): 30% | target mRNA inhibition (A431, 0.556 µM): 55% | target mRNA inhibition (A431, 1.667 µM): 80% | target mRNA inhibition (A431, 2 µM): 66% | target mRNA inhibition (A431, 5 µM): 85%

GATGTAGGGCATTTCT (sugars k3 d10 k3, PS)
target mRNA inhibition (A431, 2 µM): 0%

ATGGTGTAACATAGGT (sugars kkkddddddddkekek, PS)
target mRNA inhibition (A431, 2 µM): 43%

TTGAAAAGTGTTTATG (sugars k3 d10 k3, PS)
target mRNA inhibition (A431, 2 µM): 26%

GTAGTTTCACATAGCA (sugars k3 d10 k3, PS)
target mRNA inhibition (A431, 2 µM): 46%

AACCAGTGTTAAGAGA (sugars k3 d10 k3, PS)
target mRNA inhibition (A431, 2 µM): 35%

TGGTGAATATCTTCAA (sugars k3 d10 k3, PS)
target mRNA inhibition (A431, 2 µM): 9%

GTGTTTATGCAATGTT (sugars kkddddddddkekekk, PS)
target mRNA inhibition (A431, 2 µM): 9%

AGTGTGACTCAGTTAA (sugars k3 d10 k3, PS)
target mRNA inhibition (A431, 2 µM): 53%

GTAAATATAGCCCCAA (sugars k3 d10 k3, PS)
target mRNA inhibition (A431, 2 µM): 29%

TAAGGTAAAAGCTAAC (sugars k3 d10 k3, PS)
target mRNA inhibition (A431, 2 µM): 20%

CTTACAAATCTGAATT (sugars k3 d10 k3, PS)
target mRNA inhibition (A431, 2 µM): 7%

ACCATTCAAAGTTCAC (sugars kkkddddddddkdkdk, PS)
target mRNA inhibition (A431, 2 µM): 12%

ATGCTGTGAAACTCTC (sugars kkdddddddddkekek, PS)
target mRNA inhibition (A431, 2 µM): 16%

CAGTGTTAAGAGAACT (sugars kddddddddddkekek, PS)
target mRNA inhibition (A431, 2 µM): 23%

TCCAGTATTAACACAG (sugars k3 d10 k3, PS)
target mRNA inhibition (A431, 2 µM): 34%

CCAGTGTTAAGAGAAC (sugars k3 d10 k3, PS)
target mRNA inhibition (A431, 2 µM): 33%

CTTGTACTAGTATGCC (sugars k3 d10 k3, PS)
target mRNA inhibition (A431, 0.185 µM): 24% and 13% | target mRNA inhibition (A431, 0.556 µM): 46% and 35% | target mRNA inhibition (A431, 1.667 µM): 67% and 52% | target mRNA inhibition (A431, 2 µM): 59% | target mRNA inhibition (A431, 5 µM): 77% and 71%

ACTTGTACTAGTATGC (sugars k3 d10 k3, PS)
target mRNA inhibition (A431, 2 µM): 51%

GCATGAAGATTTCTGG (sugars k3 d10 k3, PS)
target mRNA inhibition (A431, 2 µM): 62% and 66% and 60%

GAGATATCCACAGCAG (sugars k3 d10 k3, PS)
target mRNA inhibition (A431, 2 µM): 49%

TCTATGAAAGCTCAAA (sugars k3 d10 k3, PS)
target mRNA inhibition (A431, 2 µM): 18%

TCCAGTGATACTTTCA (sugars kkkddddddddkekek, PS)
target mRNA inhibition (A431, 2 µM): 48%

CAGTGTGACTCAGTTA (sugars kkkddddddddkdkdk, PS)
target mRNA inhibition (A431, 0.185 µM): 10% | target mRNA inhibition (A431, 0.556 µM): 24% | target mRNA inhibition (A431, 1.667 µM): 45% | target mRNA inhibition (A431, 2 µM): 60% and 50% | target mRNA inhibition (A431, 5 µM): 66%

GGTGTAACATAGGTTA (sugars kkddddddddkekekk, PS)
target mRNA inhibition (A431, 0.185 µM): 0% | target mRNA inhibition (A431, 0.556 µM): 2% | target mRNA inhibition (A431, 1.667 µM): 40% | target mRNA inhibition (A431, 2 µM): 54% | target mRNA inhibition (A431, 5 µM): 58%

GGAGTCTTTATAGTAA (sugars kkdddddddddkekek, PS)
target mRNA inhibition (A431, 2 µM): 21%

ATGCTAATAATTTAGT (sugars k3 d10 k3, PS)
target mRNA inhibition (A431, 2 µM): 11%

CTTGATTTGTCAGCAG (sugars kkkddddddddkekek, PS)
target mRNA inhibition (A431, 2 µM): 41%

GGCATTTCTGATGTGA (sugars k3 d10 k3, PS)
target mRNA inhibition (A431, 2 µM): 8%

CTGTAGTTTCACATAG (sugars k3 d10 k3, PS)
target mRNA inhibition (A431, 2 µM): 25%

TTTTAATGTCACAAGC (sugars k3 d10 k3, PS)
target mRNA inhibition (A431, 2 µM): 52%

AAAAGTGTTTATGCAA (sugars k3 d10 k3, PS)
target mRNA inhibition (A431, 2 µM): 32%

ATGGTGTAACATAGGT (sugars k3 d10 k3, PS)
target mRNA inhibition (A431, 0.185 µM): 17% | target mRNA inhibition (A431, 0.556 µM): 36% | target mRNA inhibition (A431, 1.667 µM): 59% | target mRNA inhibition (A431, 2 µM): 59% and 47% and 52% | target mRNA inhibition (A431, 5 µM): 75%

GTTGAGCTATCCAAAC (sugars k3 d10 k3, PS)
target mRNA inhibition (A431, 2 µM): 2%

AAATTAATGTCTTGGC (sugars k3 d10 k3, PS)
target mRNA inhibition (A431, 2 µM): 47%

TTAATCCATTTATGTG (sugars k3 d10 k3, PS)
target mRNA inhibition (A431, 2 µM): 34%

TGATTTGTCAGCAGGA (sugars kkddddddddddkeke, PS)
target mRNA inhibition (A431, 0.185 µM): 31% | target mRNA inhibition (A431, 0.556 µM): 48% | target mRNA inhibition (A431, 1.667 µM): 67% | target mRNA inhibition (A431, 2 µM): 55% | target mRNA inhibition (A431, 5 µM): 8%

TGTTTATGCAATGTTA (sugars k3 d9 k3 e1, PS)
target mRNA inhibition (A431, 0.185 µM): 43% | target mRNA inhibition (A431, 0.556 µM): 57% | target mRNA inhibition (A431, 1.667 µM): 78% | target mRNA inhibition (A431, 2 µM): 72% | target mRNA inhibition (A431, 5 µM): 90% | target mRNA inhibition (NCI-H460, 0.037 µM): 65.6%

TTGATTTGTCAGCAGG (sugars kkdddddddddkdkdk, PS)
target mRNA inhibition (A431, 2 µM): 53%

AGGCATTGCTAGTTCA (sugars k3 d10 k3, PS)
target mRNA inhibition (A431, 2 µM): 55%

ATCTTGTTGAGCTATC (sugars k3 d10 k3, PS)
target mRNA inhibition (A431, 2 µM): 40%

GGAGTCTTTATAGTAA (sugars k3 d10 k3, PS)
target mRNA inhibition (A431, 2 µM): 38%

TTATGGTTAGGGGAAT (sugars k3 d10 k3, PS)
target mRNA inhibition (A431, 2 µM): 21%

CTGTGAAACTCTCTAT (sugars k3 d10 k3, PS)
target mRNA inhibition (A431, 2 µM): 29%

ATGCTGTGAAACTCTC (sugars k3 d10 k3, PS)
target mRNA inhibition (A431, 0.185 µM): 26% | target mRNA inhibition (A431, 0.556 µM): 42% | target mRNA inhibition (A431, 1.667 µM): 47% | target mRNA inhibition (A431, 2 µM): 58% and 52% and 39% | target mRNA inhibition (A431, 5 µM): 72%

CCATTTATGTGACTAG (sugars kkdddddddddkdkdk, PS)
target mRNA inhibition (A431, 2 µM): 43%

CCAGTGATACTTTCAC (sugars kdddddddddkekeke, PS)
target mRNA inhibition (A431, 2 µM): 16%

ACTTGAAAAGTGTTTA (sugars k3 d10 k3, PS)
target mRNA inhibition (A431, 2 µM): 16%

TGATTTGTCAGCAGGA (sugars kkddddddddkekekk, PS)
target mRNA inhibition (A431, 2 µM): 32% and 17%

CCATTTATGTGACTAG (sugars kkdddddddddkekek, PS)
target mRNA inhibition (A431, 2 µM): 25%

GATATCCACAGCAGCA (sugars k3 d10 k3, PS)
target mRNA inhibition (A431, 2 µM): 10%

CCAGTGTTAAGAGAAC (sugars kkdddddddddkekek, PS)
target mRNA inhibition (A431, 2 µM): 43%

CCATTCAAAGTTCACA (sugars kkddddddddddkeke, PS)
target mRNA inhibition (A431, 0.185 µM): 19% | target mRNA inhibition (A431, 0.556 µM): 32% | target mRNA inhibition (A431, 1.667 µM): 50% | target mRNA inhibition (A431, 2 µM): 63% | target mRNA inhibition (A431, 5 µM): 67% | target mRNA inhibition (NCI-H460, 0.037 µM): 54.7%

GGAGTCTTTATAGTAA (sugars kkdddddddddkdkdk, PS)
target mRNA inhibition (A431, 2 µM): 29%

TAGTGATTAGGTCAAA (sugars k3 d9 k3 e1, PS)
target mRNA inhibition (A431, 2 µM): 43%

AGGAGTCTTTATAGTA (sugars k3 d9 k3 e1, PS)
target mRNA inhibition (A431, 2 µM): 6%

GGGCATTTCTGATGTG (sugars k3 d10 k3, PS)
target mRNA inhibition (A431, 2 µM): 7%

CAGTGTGACTCAGTTA (sugars kddddddddddkekek, PS)
target mRNA inhibition (A431, 2 µM): 32%

ATGGTGTAACATAGGT (sugars kddddddddddkekek, PS)
target mRNA inhibition (A431, 2 µM): 47%

CCAGTGATACTTTCAC (sugars k3 d10 k3, PS)
target mRNA inhibition (A431, 2 µM): 15%

CTTGATTTGTCAGCAG (sugars k3 d9 k3 e1, PS)
target mRNA inhibition (A431, 2 µM): 46%

ACCATTCAAAGTTCAC (sugars kkdddddddddkekek, PS)
target mRNA inhibition (A431, 2 µM): 36%

TGGTGTAACATAGGTT (sugars k3 d9 k3 e1, PS)
target mRNA inhibition (A431, 0.185 µM): 21% | target mRNA inhibition (A431, 0.556 µM): 46% | target mRNA inhibition (A431, 1.667 µM): 69% | target mRNA inhibition (A431, 2 µM): 56% | target mRNA inhibition (A431, 5 µM): 80%

AACAAATGCTAATAAT (sugars k3 d10 k3, PS)
target mRNA inhibition (A431, 2 µM): 0%

TCCATTTATGTGACTA (sugars kkdddddddddkekek, PS)
target mRNA inhibition (A431, 2 µM): 32%

CCAGTGTTAAGAGAAC (sugars k3 d9 k3 e1, PS)
target mRNA inhibition (A431, 2 µM): 55%

GCATTTCTGATGTGAC (sugars k3 d10 k3, PS)
target mRNA inhibition (A431, 2 µM): 24%

ATTAGGAGTCTTTATA (sugars k3 d10 k3, PS)
target mRNA inhibition (A431, 2 µM): 20%

TTTATGCAATGTTAAT (sugars k3 d10 k3, PS)
target mRNA inhibition (A431, 2 µM): 34%

ACAAATGCTAATAATT (sugars k3 d10 k3, PS)
target mRNA inhibition (A431, 2 µM): 1%

GAGTCTTTATAGTAAT (sugars kkddddddddkekekk, PS)
target mRNA inhibition (A431, 2 µM): 0%

AGATTGTGCTGAGCTT (sugars kkdddddddddkekek, PS)
target mRNA inhibition (A431, 2 µM): 38%

TCTCCATTAGTAAATA (sugars k3 d10 k3, PS)
target mRNA inhibition (A431, 2 µM): 13%
